Patent US11472808B2, “Substituted pyrrolo[1,2-c]pyrimidines as hepatitis B antiviral agents” (Enanta Pharmaceuticals, Inc., priority 2019, dated 2022)

These compounds were tested on HBV (assay: HepAD38 anti-HBV assay: reduction of viral product accumulation (virion DNA qPCR, HBsAg/HBeAg ELISA)). Conditions: Hepatitis B virus, 120 h; HepAD38 cells; concentration reducing viral product accumulation by 50% relative to no drug controls; harvest five days after compound addition; read-out: HepAD38 EC50.
Format: cell-based
How it was run: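 Tetracycline-free HepAD38 cells treated 5 days with compound (1:200 DMSO dilution), or 8 days with media and compound refreshed on d2 and d5. Virion DNA quantified by qPCR; HBsAg or HBeAg by ELISA. EC50 is the concentration reducing viral product accumulation 50% versus no-drug controls.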
For `CC(C)[C@]1(O)CC[C@@H](c2ccc(S(=O)(=O)N[C@H]3CC4=C(c5ccn(C(F)F)n5)[C@H](c5ccc(F)cc5Cl)N=C(c5nccs5)N4C3)cc2)CC1` [Example 413], the EC50 was < 100 nM.
`O=C(N[C@H]1CC2=C(c3ccn(C(F)F)n3)[C@H](c3ccc(F)cc3Cl)N=C(c3nccs3)N2C1)N1CCC[C@@H](O)C1` [Example 223] showed an EC50 of 100 to 400 nM.
`O=C(N[C@H]1CC2=C(c3ccn(C(F)F)n3)[C@H](c3ccc(F)cc3Cl)N=C(c3nccs3)N2C1)C1CCC1` [Example 237] gave an EC50 of 100 to 400 nM.
In the case of `Fc1ccc([C@@H]2N=C(c3nccs3)N3C[C@@H](N4CCNCC4)CC3=C2c2ccn(C(F)F)n2)c(Cl)c1` [Example 45], the EC50 is reported as > 400 nM.
In the case of `CC(C)CCS(=O)(=O)N[C@H]1CC2=C(c3ccn(C(F)F)n3)[C@H](c3ccc(F)cc3Cl)N=C(c3nccs3)N2C1` [Example 71], the EC50 is reported as 100 to 400 nM.
For `O=S(=O)(Nc1ccccc1)N[C@H]1CC2=C(c3ccn(C(F)F)n3)[C@H](c3ccc(F)cc3Cl)N=C(c3nccs3)N2C1` [Example 82], the EC50 was 100 to 400 nM.
`O=S(=O)(N[C@H]1CC2=C(c3ccn(C(F)F)n3)[C@H](c3ccc(F)cc3Cl)N=C(c3nccs3)N2C1)c1ccc2ncsc2c1` [Example 398] was tested, and the EC50 was < 100 nM.
`O=S(=O)(C[C@]1(F)CC2=C(c3ccn(C(F)F)n3)[C@H](c3ccc(F)cc3Cl)N=C(c3nccs3)N2C1)c1ccccc1` [Example 195] was tested, and the EC50 was < 100 nM.
`O=S(=O)(CCN1CCOCC1)N[C@H]1CC2=C(c3ccn(C(F)F)n3)[C@H](c3ccc(F)cc3Cl)N=C(c3nccs3)N2C1` [Example 56] showed an EC50 of 100 to 400 nM.
`COC(=O)c1cccc(S(=O)(=O)NC[C@]2(O)CC3=C(c4ccn(C(F)F)n4)[C@H](c4ccc(F)cc4Cl)N=C(c4nccs4)N3C2)c1` [Example 130] gave an EC50 of 100 to 400 nM.
For `O=C(O)c1ccc(S(=O)(=O)N[C@H]2CC3=C(c4ccn(C(F)F)n4)[C@H](c4ccc(F)cc4Cl)N=C(c4nccs4)N3C2)cc1` [Example 6], the EC50 was < 100 nM.
`O[C@@]1(CN2CCOCC2)CC2=C(c3ccn(C(F)F)n3)[C@H](c3ccc(F)cc3Cl)N=C(c3nccs3)N2C1` [Example 139] showed an EC50 of 100 to 400 nM.
Work on `COC(=O)CCS(=O)(=O)N[C@H]1CC2=C(c3ccn(C(F)F)n3)[C@H](c3ccc(F)cc3Cl)N=C(c3nccs3)N2C1` [Example 8] yielded an EC50 of 100 to 400 nM.
`CS(=O)(=O)NCCS(=O)(=O)N[C@H]1CC2=C(c3ccn(C(F)F)n3)[C@H](c3ccc(F)cc3Cl)N=C(c3nccs3)N2C1` [Example 344] gave an EC50 of 100 to 400 nM.
Work on `Fc1ccc([C@@H]2N=C(c3nccs3)N3C[C@@H](Nc4ccc(-c5ccccn5)cc4)CC3=C2c2ccn(C(F)F)n2)c(Cl)c1` [Example 330] yielded an EC50 of 100 to 400 nM.
For `N#CCCCS(=O)(=O)N([C@H]1CC2=C(c3ccn(C(F)F)n3)[C@H](c3ccc(F)cc3Cl)N=C(c3nccs3)N2C1)S(=O)(=O)CCCC#N` [Example 136], the EC50 was 100 to 400 nM.
For `CN(C)CCS(=O)(=O)N[C@H]1CC2=C(c3ccn(C(F)F)n3)[C@H](c3ccc(F)cc3Cl)N=C(c3nccs3)N2C1` [Example 53], the EC50 was < 100 nM.
Compound `O=S(=O)(NCC1(c2ccccn2)CC1)N[C@H]1CC2=C(c3ccn(C(F)F)n3)[C@H](c3ccc(F)cc3Cl)N=C(c3nccs3)N2C1` [Example 316] has an EC50 of 100 to 400 nM.
With `O=S1(=O)CCCN1[C@H]1CC2=C(c3ccn(C(F)F)n3)[C@H](c3ccc(F)cc3Cl)N=C(c3nccs3)N2C1` [Example 375] the EC50 was 100 to 400 nM.
`C=CCNC[C@]1(O)CC2=C(c3ccn(C(F)F)n3)[C@H](c3ccc(F)cc3Cl)N=C(c3nccs3)N2C1` [Example 117] was tested, and the EC50 was > 400 nM.
With `C=CS(=O)(=O)N[C@H]1CC2=C(c3ccn(C(F)F)n3)[C@H](c3ccc(F)cc3Cl)N=C(c3nccs3)N2C1` [Example 50] the EC50 was 100 to 400 nM.
Work on `CCOC(=O)CC(NS(=O)(=O)N[C@H]1CC2=C(c3ccn(C(F)F)n3)[C@H](c3ccc(F)cc3Cl)N=C(c3nccs3)N2C1)c1ccccn1` (stereo partly drawn) [Example 355] yielded an EC50 of 100 to 400 nM.
`COC(=O)C1CCN(C(=O)N[C@H]2CC3=C(c4ccn(C(F)F)n4)[C@H](c4ccc(F)cc4Cl)N=C(c4nccs4)N3C2)CC1` [Example 211] was tested, and the EC50 was 100 to 400 nM.
In the case of `C=CC1(F)CC2=C(c3ccn(C(F)F)n3)[C@H](c3ccc(F)cc3Cl)N=C(c3nccs3)N2C1` (stereo partly drawn) [Example 171], the EC50 is reported as 100 to 400 nM.
